Data from patent US20220073536A1 (Rigel Pharmaceuticals, Inc., priority 2003, published 2022).
pIC50: −log10 of the molar value. Counter-ions that a name gives are not always drawn. Like-named read-outs stand apart in the source and are kept apart here. Blank lines part the entries; values can stand above or below the compound they belong to.

System: cultured human mast cells (CHMC)
Assay: CHMC low cell density IgE activation: tryptase assay
Format: cell-based
Details: IgE activation
Procedure, shortened: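 Tryptase release, fluorogenic substrate, 30 min RT. Prior anti-IgE stimulation of CHMC, 30 min, 37 °C, after 1 hr preincubation at 1000–1500 cells/well in MT; unstimulated wells received MT.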

[1] = low cell density, 3 pt, read-out: LD Tryptase, CHMC, IgE, 3 pt
[2] = Homo sapiens, Mast cell, low cell density, 3 pt, read-out: LD Tryptase, CHMC, IgE, 3 pt
[3] = Homo sapiens, Mast cell, low cell density, 8 pt, read-out: LD Tryptase, CHMC, IgE, 8 pt
[4] = low cell density CHMC, tryptase release, 3 point, read-out: LD Tryptase, CHMC, IgE, 3 pt
[5] = low cell density CHMC, tryptase release, 8 point, read-out: LD Tryptase, CHMC, IgE, 8 pt
[6] = Homo sapiens, Mast cell, low cell density CHMC, tryptase, 3 pt, read-out: LD Tryptase, CHMC, IgE, 3 pt

Compound: CC(C)(C)c1nnc(-c2cccc(Nc3ncc(F)c(Nc4ccc5c(c4)OCCO5)n3)c2)o1 [Compound 531, N2-[ (2-tert-Butyl-1,3,4-oxadiazol-5-yl)phenyl]-N4-(3,4-ethylenedioxyphenyl)-5-fluoro-2,4-pyrimidinediamine]
- pIC50 [1]: > 5.00

Compound: CC(C)(C)c1nnc(-c2cccc(Nc3ncc(F)c(Nc4cccc(O)c4)n3)c2)o1 [Compound 532, N2-[ (2-tert-Butyl-1,3,4-oxadiazol-5-yl)phenyl]-5-fluoro-N4-(3-hydroxyphenyl)-2,4-pyrimidinediamine]
- pIC50 [1]: > 5.00

Compound: CN(c1ccc2c(c1)OCCO2)c1nc(NN)ncc1F [Compound 533, N4-(3,4-Ethylenedioxyphenyl)-5-fluoro-N4-methyl-2-hydrazine-4-pyrimidineamine]
- pIC50 [1]: < 5.00

Compound: Cc1noc(C)c1Nc1nc(Nc2cccc(-c3ncco3)c2)ncc1F [Compound 534, N4-(3,5-Dimethylisoxazol-4-yl)-5-fluoro-N2-[3-(oxazol-2-yl)phenyl]-2,4-pyrimidinediamine]
- pIC50 [2]: > 5.00

Compound: COC(=O)c1cc(Nc2ncc(F)c(Nc3c(C)noc3C)n2)cc(-c2ncco2)c1 [Compound 535]
- pIC50 [2]: > 5.00

Compound: CC1(C)Oc2ccc(Nc3nc(Nc4ccc5nc(C(F)(F)F)[nH]c5c4)ncc3F)cc2NC1=O [Compound 539, N4-(2,2-Dimethyl-3-oxo-4H-benz[1,4]oxazin-6-yl)-5-fluoro-N2-(2-trifluoromethyl-3H-benzimidazol-5-yl)-2,4-pyrimidinediamine p-Toluenesulfonic Acid Salt]
- pIC50 [3]: > 5.00

Compound: COc1cc(Nc2ncc(F)c(Nc3ccc4c(c3)NC(=O)C(C)(C)O4)n2)cc(OC)c1OC [Compound 543]
- pIC50 [2]: > 5.00
- pIC50 [3]: > 5.00

Compound: COc1cc(Nc2ncc(F)c(Nc3ccc(OC)c(N)n3)n2)cc(OC)c1 [Compound 544]
- pIC50 [2]: > 5.00

Compound: COc1ccc(Nc2nc(Nc3cc(OC)c(OC)c(OC)c3)ncc2F)nc1N [Compound 545]
- pIC50 [2]: > 5.00

Compound: COC(=O)c1cc2cc(Nc3ncc(F)c(Nc4ccc(OC)c(N)n4)n3)ccc2o1 [Compound 546]
- pIC50 [2]: > 5.00

Compound: CNC(=O)COc1cccc(Nc2ncc(F)c(Nc3ccc(OC)c(N)n3)n2)c1 [Compound 547, N4-(2-Amino-3-methoxypyrid-6-yl)-5-fluoro-N2[3-(N-methylaminocarbonylmethyleneoxy)phenyl]-2,4-pyrimidinediamine]
- pIC50 [1]: > 5.00

Compound: COc1c(Cl)cc(Nc2nc(Nc3cc(Cl)c(O)c(Cl)c3)ncc2F)cc1Cl [Compound 548]
- pIC50 [2]: > 5.00
- pIC50 [3]: > 5.00

Compound: COc1cc(Nc2ncc(F)c(Nc3cc(C)cc(C)c3)n2)cc(OC)c1OC [Compound 553]
- pIC50 [3]: > 5.00

Compound: Cc1cc(C)cc(Nc2nc(Nc3cc(C)c(O)c(Cl)c3)ncc2F)c1 [Compound 554]
- pIC50 [3]: > 5.00

Compound: Cc1cc(C)cc(Nc2nc(Nc3cc(Cl)cc(Cl)c3)ncc2F)c1 [Compound 556]
- pIC50 [2]: > 5.00
- pIC50 [3]: > 5.00

Compound: CNC(=O)c1cc2cccc(Nc3ncc(F)c(Nc4cc(C)cc(C)c4)n3)c2[nH]1 [Compound 557, N4-(3,5-Dimethylphenyl)-5-fluoro-N2-[2-(N-methylamino)carbonylindol-7-yl]-2,4-pyrimidinediamine]
- pIC50 [3]: < 5.00

Compound: CNC(=O)c1cc2cccc(Nc3ncc(F)c(Nc4cc(OC)cc(C(F)(F)F)c4)n3)c2[nH]1 [Compound 558, 5-Fluoro-N4-(3-methoxy-5-trifluoromethylphenyl)-N2-[2-(N-methylamino)carbonylindol-7-yl]-2,4-pyrimidinediamine]
- pIC50 [2]: > 5.00

Compound: Cc1cc(C)cc(Nc2nc(Nc3cc(Cl)c(O)c(Cl)c3)ncc2F)c1 [Compound 559]
- pIC50 [2]: > 5.00
- pIC50 [3]: > 5.00

Compound: Cc1cc(C)cc(Nc2nc(Nc3cc(C)c(Cl)c(C)c3)ncc2F)c1 [Compound 560]
- pIC50 [2]: < 5.00

Compound: Oc1c(Cl)cc(Nc2ncc(F)c(Nc3ccc4c(c3)OC(F)(F)O4)n2)cc1Cl [Compound 564]
- pIC50 (low cell density, 8 pt, read-out: LD Tryptase, CHMC, IgE, 8 pt): > 5.00

Compound: Fc1cnc(Nc2cc(Cl)cc(Cl)c2)nc1Nc1ccc2c(c1)OC(F)(F)O2 [Compound 565]
- pIC50 [4]: > 5.00

Other lines, results leading:

- pIC50 [4]: < 5.00
Compound: Cc1cc(Nc2ncc(F)c(Nc3ccc4c(c3)OC(F)(F)O4)n2)cc(C)c1Cl [Compound 566]

- pIC50 [4]: < 5.00
Compound: COc1cc(Nc2ncc(F)c(Nc3ccc4c(c3)OC(F)(F)O4)n2)cc(C(F)(F)F)c1 [Compound 568]

- pIC50 [4]: > 5.00
Compound: Cc1cc(Nc2ncc(F)c(Nc3ccc4c(c3)OC(F)(F)O4)n2)cc(C(F)(F)F)c1 [Compound 569]

- pIC50 [4]: > 5.00
- pIC50 [5]: > 5.00
Compound: CNC(=O)COc1c(C)cc(Nc2ncc(F)c(Nc3ccc(OC)c(Cl)c3)n2)cc1C [Compound 571, N4-(3-Chloro-4-methoxyphenyl)-N2-[3,5-dimethyl-4-(N-methylamino)carbonylmethyleneoxyphenyl]-5-fluoro-2,4-pyrimidinediamine]

- pIC50 [4]: > 5.00
- pIC50 [5]: > 5.00
Compound: CNC(=O)COc1c(C)cc(Nc2ncc(F)c(Nc3ccc4c(c3)OCCO4)n2)cc1C [Compound 572, N2-[3,5-dimethyl-4-(N-methylamino)carbonylmethyleneoxyphenyl]-N4-(3,4-ethylenedioxyphenyl)-5-fluoro-2,4-pyrimidinediamine]

- pIC50 [4]: > 5.00
- pIC50 [5]: > 5.00
Compound: CNC(=O)COc1c(C)cc(Nc2ncc(F)c(Nc3cc(OC)cc(OC)c3)n2)cc1C [Compound 573, N4-(3,5-Dimethoxyphenyl)-N2-[3,5-dimethyl-4-(N-methylamino)carbonylmethyleneoxyphenyl]-5-fluoro-2,4-pyrimidinediamine]

- pIC50 [4]: > 5.00
- pIC50 [5]: > 5.00
Compound: CNC(=O)COc1c(C)cc(Nc2ncc(F)c(Nc3ccc4c(c3)NC(=O)C(C)(C)O4)n2)cc1C [Compound 574, N2-[3,5-dimethyl-4-(N-methylamino)carbonylmethyleneoxyphenyl]-N4-(2,2-dimethyl-3-oxo-4H-benz[1,4]oxazin-6-yl)-5-fluoro-2,4-pyrimidinediamine]

- pIC50 [4]: > 5.00
- pIC50 [5]: > 5.00
Compound: CNC(=O)COc1c(C)cc(Nc2ncc(F)c(Nc3ccc4c(c3)OCO4)n2)cc1C [Compound 575, N2-[3,5-dimethyl-4-(N-methylamino)carbonylmethyleneoxyphenyl]-5-fluoro-N4-(3,4-methylenedioxyphenyl)-2,4-pyrimidinediamine]

- pIC50 [5]: > 5.00
Compound: CNC(=O)Cn1ccc2cc(Nc3ncc(F)c(Nc4ccc(OCCO)nc4)n3)ccc21 [Compound 650, 5-Fluoro-N4-[2-(2-hydroxyethyleneoxy)pyrid-5-yl]-N2-[1-(N-methylamino)carbonylmethyleneindol-5-yl]-2,4-pyrimidinediamine]

- pIC50 [5]: > 5.00
Compound: CNC(=O)Cn1ccc2cc(Nc3ncc(F)c(Nc4ccc(OC(F)(F)F)c(Cl)c4)n3)ccc21 [Compound 651, N4-(3-Chloro-4-trifluoromethoxyphenyl)-5-fluoro-N2-[1-(N-methylamino)carbonylmethyleneindol-5-yl]-2,4-pyrimidinediamine]

- pIC50 [5]: > 5.00
Compound: CNC(=O)Cn1ccc2cc(Nc3ncc(F)c(Nc4ccc(Cl)c(OC)c4)n3)ccc21 [Compound 653, N4-(4-Chloro-3-methoxyphenyl)-5-fluoro-N2-[1-(N-methylamino)carbonylmethyleneindol-5-yl]-2,4-pyrimidinediamine]

- pIC50 [5]: > 5.00
Compound: CNC(=O)Cn1ccc2cc(Nc3ncc(F)c(Nc4ccc(OC)c(Cl)c4)n3)ccc21 [Compound 654, N4-(3-Chloro-4-methoxyphenyl)-5-fluoro-N2-[1-(N-methylamino)carbonylmethyleneindol-5-yl]-2,4-pyrimidinediamine]

- pIC50 [5]: > 5.00
Compound: CNC(=O)Cn1ccc2cc(Nc3ncc(F)c(Nc4ccc5c(c4)OCCO5)n3)ccc21 [Compound 655, N4-(3,4-Ethylenedioxyphenyl)-5-fluoro-N2-[1-(N-methylamino)carbonylmethyleneindol-5-yl]-2,4-pyrimidinediamine]

- pIC50 [5]: > 5.00
Compound: CNC(=O)Cn1ccc2cc(Nc3ncc(F)c(Nc4ccc(C(=O)NC)c(Cl)c4)n3)ccc21 [Compound 656, N4-[3-Chloro-4-(N-methylamino)carbonylphenyl]-5-fluoro-N2-[1-(N-methylamino)carbonylmethyleneindol-5-yl]-2,4-pyrimidinediamine]

- pIC50 (Homo sapiens, Mast cell, low cell density CHMC, tryptase release, 3 point, read-out: LD Tryptase, CHMC, IgE, 3 pt): > 5.00
Compound: COc1cc(Nc2nc(Nc3cccc(-c4ncco4)c3)ncc2F)cc(OC)c1OC [Compound 667]

- pIC50 [6]: > 5.00
Compound: COc1ccc(Nc2ncc(F)c(Nc3ccc4c(c3)OCCO4)n2)c(OC)c1OC [Compound 668, N4-(3,4-Ethylenedioxyphenyl)-5-fluoro-N2-(2,3,4-trimethoxyphenyl)-2,4-pyrimidinediamine]

- pIC50 [6]: < 5.00
Compound: COc1ccc(Nc2nc(Nc3ccc(OC)c(OC)c3OC)ncc2F)cc1Cl [Compound 669, N4-(3-Chloro-4-methoxyphenyl)-5-fluoro-N2-(2,3,4-trimethoxyphenyl)-2,4-pyrimidinediamine]

- pIC50 [6]: < 5.00
Compound: COc1cc(Nc2nc(Nc3ccc(OC)c(OC)c3OC)ncc2F)ccc1Cl [Compound 670]

- pIC50 [6]: > 5.00
Compound: COc1ccc(Nc2ncc(F)c(Nc3ccc(OC(F)(F)F)c(Cl)c3)n2)c(OC)c1OC [Compound 671]

- pIC50 [6]: > 5.00
Compound: COc1ccc(Nc2ncc(F)c(Nc3ccc4c(c3)NC(=O)C(C)(C)O4)n2)c(OC)c1OC [Compound 672]
